How the values were obtained:
Assay in all cases: Color, fluorescence and growth of colonies on Columbia medium with nitroreductase substrate
Type in all cases: cell-based
[1] = system: Staphylococcus aureus NCTC 11 939; set-up: key to Growth: NG: no growth; 0.5: low growth; 1: moderate growth; 2: good growth; key to Fluo.: fluorescence of the colonies / Col.: color of the colonies: —: no color/fluorescence; conditions: 40 mg substrate in 400 ml Columbia medium, 24 hours at 37° C.; for Col.: color of the colonies: examined visually; for Fluo.: fluorescence of the colonies: UV lamp at 365 nm
Method: (§1) 40 mg of each of the substrates were dissolved in 4 ml of dimethylsulfoxide and added to 400 ml of previously autoclaved Columbia medium. The 5 media were distributed in Petri dishes 90 mm in diameter at the rate of 20 ml per dish. Seventeen strains of microorganisms obtained from collections and belonging to various species of bacteria and yeasts are inoculated as spots of about 10 000 colony forming units. The media are incubated for 24 hours at 37° C. and then the colonies formed are examined visually and under a UV lamp at 365 nm.

[2] = system: Bacillus subtilis NCTC 9 372; set-up: key to Growth: NG: no growth; 0.5: low growth; 1: moderate growth; 2: good growth; key to Fluo.: fluorescence of the colonies / Col.: color of the colonies: —: no color/fluorescence; conditions: 40 mg substrate in 400 ml Columbia medium, 24 hours at 37° C.; for Col.: color of the colonies: examined visually; for Fluo.: fluorescence of the colonies: UV lamp at 365 nm
Method: as §1

[3] = system: Salmonella typhimurium NCTC 74; set-up: key to Growth: NG: no growth; 0.5: low growth; 1: moderate growth; 2: good growth; key to Fluo.: fluorescence of the colonies / Col.: color of the colonies: —: no color/fluorescence; conditions: 40 mg substrate in 400 ml Columbia medium, 24 hours at 37° C.; for Fluo.: fluorescence of the colonies: UV lamp at 365 nm; for Col.: color of the colonies: examined visually
Method: as §1

[4] = system: Candida glabrata NCPF 3 943; set-up: key to Growth: NG: no growth; 0.5: low growth; 1: moderate growth; 2: good growth; key to Fluo.: fluorescence of the colonies / Col.: color of the colonies: —: no color/fluorescence; conditions: 40 mg substrate in 400 ml Columbia medium, 24 hours at 37° C.; for Col.: color of the colonies: examined visually; for Fluo.: fluorescence of the colonies: UV lamp at 365 nm
Method: as §1

[5] = system: Streptococcus pyogenes NCTC 8 306; set-up: key to Growth: NG: no growth; 0.5: low growth; 1: moderate growth; 2: good growth; key to Fluo.: fluorescence of the colonies / Col.: color of the colonies: —: no color/fluorescence; conditions: 40 mg substrate in 400 ml Columbia medium, 24 hours at 37° C.; for Col.: color of the colonies: examined visually; for Fluo.: fluorescence of the colonies: UV lamp at 365 nm
Method: as §1

[6] = system: Staphylococcus epidermidis NCTC 11 047; set-up: key to Growth: NG: no growth; 0.5: low growth; 1: moderate growth; 2: good growth; key to Fluo.: fluorescence of the colonies / Col.: color of the colonies: —: no color/fluorescence; conditions: 40 mg substrate in 400 ml Columbia medium, 24 hours at 37° C.; for Col.: color of the colonies: examined visually; for Fluo.: fluorescence of the colonies: UV lamp at 365 nm
Method: as §1

[7] = system: Staphylococcus aureus NCTC 6 571; set-up: key to Growth: NG: no growth; 0.5: low growth; 1: moderate growth; 2: good growth; key to Fluo.: fluorescence of the colonies / Col.: color of the colonies: —: no color/fluorescence; conditions: 40 mg substrate in 400 ml Columbia medium, 24 hours at 37° C.; for Col.: color of the colonies: examined visually; for Fluo.: fluorescence of the colonies: UV lamp at 365 nm
Method: as §1

[8] = system: Listeria monocytogenes NCTC 11 994; set-up: key to Growth: NG: no growth; 0.5: low growth; 1: moderate growth; 2: good growth; key to Fluo.: fluorescence of the colonies / Col.: color of the colonies: —: no color/fluorescence; conditions: 40 mg substrate in 400 ml Columbia medium, 24 hours at 37° C.; for Fluo.: fluorescence of the colonies: UV lamp at 365 nm; for Col.: color of the colonies: examined visually
Method: as §1

[9] = system: Candida albicans ATCC 90 028; set-up: key to Growth: NG: no growth; 0.5: low growth; 1: moderate growth; 2: good growth; key to Fluo.: fluorescence of the colonies / Col.: color of the colonies: —: no color/fluorescence; conditions: 40 mg substrate in 400 ml Columbia medium, 24 hours at 37° C.; for Col.: color of the colonies: examined visually; for Fluo.: fluorescence of the colonies: UV lamp at 365 nm
Method: as §1

[10] = system: Pseudomonas aeruginosa NCTC 10 662; set-up: key to Growth: NG: no growth; 0.5: low growth; 1: moderate growth; 2: good growth; key to Fluo.: fluorescence of the colonies / Col.: color of the colonies: —: no color/fluorescence; conditions: 40 mg substrate in 400 ml Columbia medium, 24 hours at 37° C.; for Col.: color of the colonies: examined visually; for Fluo.: fluorescence of the colonies: UV lamp at 365 nm
Method: as §1

[11] = system: Enterococcus faecium NCTC 7 171; set-up: key to Growth: NG: no growth; 0.5: low growth; 1: moderate growth; 2: good growth; key to Fluo.: fluorescence of the colonies / Col.: color of the colonies: —: no color/fluorescence; conditions: 40 mg substrate in 400 ml Columbia medium, 24 hours at 37° C.; for Fluo.: fluorescence of the colonies: UV lamp at 365 nm; for Col.: color of the colonies: examined visually
Method: as §1

[12] = system: Yersinia enterocolitica NCTC 11 176; set-up: key to Growth: NG: no growth; 0.5: low growth; 1: moderate growth; 2: good growth; key to Fluo.: fluorescence of the colonies / Col.: color of the colonies: —: no color/fluorescence; conditions: 40 mg substrate in 400 ml Columbia medium, 24 hours at 37° C.; for Col.: color of the colonies: examined visually; for Fluo.: fluorescence of the colonies: UV lamp at 365 nm
Method: as §1

[13] = system: Providencia rettgeri NCTC 7 475; set-up: key to Growth: NG: no growth; 0.5: low growth; 1: moderate growth; 2: good growth; key to Fluo.: fluorescence of the colonies / Col.: color of the colonies: —: no color/fluorescence; conditions: 40 mg substrate in 400 ml Columbia medium, 24 hours at 37° C.; for Col.: color of the colonies: examined visually; for Fluo.: fluorescence of the colonies: UV lamp at 365 nm
Method: as §1

[14] = system: Enterococcus faecalis NCTC 775; set-up: key to Growth: NG: no growth; 0.5: low growth; 1: moderate growth; 2: good growth; key to Fluo.: fluorescence of the colonies / Col.: color of the colonies: —: no color/fluorescence; conditions: 40 mg substrate in 400 ml Columbia medium, 24 hours at 37° C.; for Fluo.: fluorescence of the colonies: UV lamp at 365 nm
Method: as §1

[15] = system: Escherichia coli NCTC 10 418; set-up: key to Growth: NG: no growth; 0.5: low growth; 1: moderate growth; 2: good growth; key to Col.: color of the colonies: —: no color/fluorescence; conditions: 40 mg substrate in 400 ml Columbia medium, 24 hours at 37° C.
Method: as §1

[16] = system: Enterobacter cloacae NCTC 11 936; set-up: key to Growth: NG: no growth; 0.5: low growth; 1: moderate growth; 2: good growth; key to Col.: color of the colonies: —: no color/fluorescence; conditions: 40 mg substrate in 400 ml Columbia medium, 24 hours at 37° C.; for Col.: color of the colonies: examined visually
Method: as §1

[17] = system: Serratia marcescens NCTC 10 211; set-up: key to Growth: NG: no growth; 0.5: low growth; 1: moderate growth; 2: good growth; key to Col.: color of the colonies: —: no color/fluorescence; conditions: 40 mg substrate in 400 ml Columbia medium, 24 hours at 37° C.
Method: as §1

2-(4′-nitrophenyl)butadienyl-N-methylquinolinium iodide [2NPBMQ^+I]
Growth [1]: NG
Col.: color of the colonies [1]: —
Growth [2]: 0.5
Col.: color of the colonies [2]: —
Growth [3]: 1
Growth [4]: NG
Col.: color of the colonies [4]: —
Growth [5]: 0.5
Col.: color of the colonies [5]: —
Growth [6]: 1
Col.: color of the colonies [6]: —
Growth [7]: NG
Col.: color of the colonies [7]: —
Growth [8]: 1
Growth [9]: NG
Col.: color of the colonies [9]: —
Growth [10]: 2
Col.: color of the colonies [10]: Orange
Growth [11]: 1
Growth [12]: 1
Growth [13]: 2
Col.: color of the colonies [13]: Orange
Growth [14]: 1
Growth [15]: 2
Growth [16]: 2
Col.: color of the colonies [16]: Orange
Growth [17]: 2

C[n+]1c(C=Cc2ccc([N+](=O)[O-])cc2)ccc2ccccc21.[I-] [2NSMQ^+I, 2-(4′-nitrostyryl)-N-methylquinolinium iodide]
Growth [1]: NG
Col.: color of the colonies [1]: —
Growth [2]: 1
Growth [3]: 2
Growth [4]: NG
Col.: color of the colonies [4]: —
Growth [5]: 0.5
Growth [6]: 0.5
Col.: color of the colonies [6]: —
Growth [7]: NG
Col.: color of the colonies [7]: —
Growth [8]: 1
Growth [9]: 0.5
Col.: color of the colonies [9]: —
Growth [10]: 2
Growth [11]: 1
Growth [12]: 2
Col.: color of the colonies [12]: Rust
Growth [13]: 2
Col.: color of the colonies [13]: Rust
Growth [14]: 1
Growth [15]: 2
Growth [16]: 2
Growth [17]: 2

O=[N+]([O-])c1ccc(C=Cc2ccc3ccccc3n2)cc1 [2NSQ, 2-(4′-nitrostyryl)quinoline]
Growth [1]: 1
Fluo.: fluorescence of the colonies [1]: —
Col.: color of the colonies [1]: —
Growth [2]: 1
Fluo.: fluorescence of the colonies [2]: —
Col.: color of the colonies [2]: —
Growth [3]: 2
Fluo.: fluorescence of the colonies [3]: —
Col.: color of the colonies [3]: —
Growth [4]: 1
Fluo.: fluorescence of the colonies [4]: —
Col.: color of the colonies [4]: —
Growth [5]: 1
Fluo.: fluorescence of the colonies [5]: —
Col.: color of the colonies [5]: —
Growth [6]: 1
Fluo.: fluorescence of the colonies [6]: —
Col.: color of the colonies [6]: —
Growth [7]: 1
Fluo.: fluorescence of the colonies [7]: —
Col.: color of the colonies [7]: —
Growth [8]: 1
Fluo.: fluorescence of the colonies [8]: —
Col.: color of the colonies [8]: —
Growth [9]: 0.5
Fluo.: fluorescence of the colonies [9]: —
Col.: color of the colonies [9]: —
Growth [10]: 2
Fluo.: fluorescence of the colonies [10]: —
Col.: color of the colonies [10]: —
Growth [11]: 1
Fluo.: fluorescence of the colonies [11]: —
Col.: color of the colonies [11]: —
Growth [12]: 2
Fluo.: fluorescence of the colonies [12]: —
Col.: color of the colonies [12]: —
Growth [13]: 2
Fluo.: fluorescence of the colonies [13]: —
Col.: color of the colonies [13]: —
Growth [14]: 1
Fluo.: fluorescence of the colonies [14]: —
Col.: color of the colonies ([14]; examined visually): —
Growth [15]: 2
Col.: color of the colonies ([15]; examined visually): —
Growth [16]: 2
Col.: color of the colonies [16]: —
Growth [17]: 2
Col.: color of the colonies ([17]; examined visually): —

COc1cc([N+](=O)[O-])ccc1C=Cc1cc[n+](C)c2ccccc12.[I-] [4NMSMQ^+I, 4-(4′-nitro-2′-methoxystyryl)-N-methylquinolinium iodide]
Growth [1]: 2
Fluo.: fluorescence of the colonies [1]: —
Growth [2]: 2
Fluo.: fluorescence of the colonies [2]: —
Growth [3]: 1
Fluo.: fluorescence of the colonies [3]: —
Col.: color of the colonies [3]: —
Growth [4]: NG
Fluo.: fluorescence of the colonies [4]: —
Col.: color of the colonies [4]: —
Growth [5]: 1
Fluo.: fluorescence of the colonies [5]: —
Col.: color of the colonies [5]: —
Growth [6]: 2
Fluo.: fluorescence of the colonies [6]: —
Growth [7]: 2
Fluo.: fluorescence of the colonies [7]: —
Growth [8]: 2
Fluo.: fluorescence of the colonies [8]: —
Col.: color of the colonies [8]: —
Growth [9]: 0.5
Fluo.: fluorescence of the colonies [9]: —
Col.: color of the colonies [9]: —
Growth [10]: 1
Fluo.: fluorescence of the colonies [10]: —
Col.: color of the colonies [10]: —
Growth [11]: 0.5
Fluo.: fluorescence of the colonies [11]: —
Col.: color of the colonies [11]: —
Growth [12]: 2
Fluo.: fluorescence of the colonies [12]: —
Col.: color of the colonies [12]: —
Growth [13]: 0.5
Fluo.: fluorescence of the colonies [13]: —
Col.: color of the colonies [13]: —
Growth [14]: 2
Fluo.: fluorescence of the colonies [14]: —
Growth [15]: 2
Growth [16]: 2
Growth [17]: 2

— patent US8592175B2, “Nitroreductase enzymatic substrates” (bioMérieux, S.A., priority 2009, dated 2013)
